Results reported in paper PMC9131373 (Drug testing and analysis, 2021).
“And” between values parts separate entries of the source, which are not always exact repeats. Equal entries are not always repeated. Where two headings read alike, the source gives them in different places.

Experiments:
[1] = cited from earlier work; for Intracellular TFV-DP levels, higher: than levels without boosting
[2] = MSM on TAF/FTC/COBI/EVG versus TDF/FTC; cited from earlier work
[3] = Stability of TFV and FTC in stock solutions, processed samples and hair; type: physicochemical; conditions: for Stability in processed samples: a week in a refrigerator at 4°C; for Time stable in hair samples: room temperature, deviation less than ±15%
[4] = TFV and FTC concentrations in participant hair samples by LC/MS/MS; type: in vivo, human; conditions: for Difference of average hair concentration, TAF versus TDF: those on TAF relative to those on TDF
[5] = cited from earlier work
[6] = Plasma pharmacokinetics of TFV after TDF or TAF; type: in vivo, human; conditions: from ref 75 and ref 76
[7] = TDF/FTC to HIV-noninfected volunteers, directly-observed, 7 days a week; cited from earlier work
[8] = cited from earlier work; remark: listed apart in the source
[9] = 200 μg/ml in 50% MeOH, at least 6 h at room temperature
[10] = 6 participants on TAF/FTC-based ART
[11] = 10 participants on TDF/FTC-based ART
[12] = TAF-based ART, with booster (COBI or RTV)
[13] = TDF-based ART, not receiving boosters
[14] = TDF-based ART, receiving boosters (COBI or RTV)
[15] = average of original and repeated, one line per patient
[16] = both TDF- and TAF-containing ART, not on booster drugs
[17] = both TDF- and TAF-containing ART, on concomitant boosters (COBI or RTV)
[18] = TAF-based versus TDF-based regimen with darunavir/COBI/FTC
[19] = plasma, TAF (8 mg) compared with TDF (300 mg)
[20] = plasma, TAF (25 mg) compared with TDF (300 mg)
[21] = plasma, from TAF with darunavir/COBI/FTC
[22] = plasma, from TDF with darunavir/COBI/FTC

SMILES	Stock solution stability [3, 9] [%]	Stability in processed samples [3] [%]	Stock solution stability ([3]; at least 1 year at 4°C) [%]	Time stable in hair samples [3]	Average hair concentration [4, 10]	Average hair concentration [4, 11]	Hair concentration [4, 12] [ng/mg hair]	Hair concentration ([4]; TAF-based ART, without booster) [ng/mg hair]	Hair concentration [4, 13] [ng/mg hair]	Hair concentration ([4]; TDF-based ART, receiving COBI) [ng/mg hair]	Hair concentration ([4]; TDF-based ART, receiving RTV) [ng/mg hair]	Hair concentration [4, 14] [ng/mg hair]	Hair concentration [4, 16] [ng/mg hair]	Hair concentration [4, 17] [ng/mg hair]	Difference of average hair concentration, TAF versus TDF [4] [%]	acidic pKa [5]	also measured
CC(Cn1cnc2c(N)ncnc21)OCP(=O)(O)OP(=O)(O)OP(=O)(O)O (stereo in doubt) [TFV-DP, tenofovir diphosphate]																	Intracellular TFV-DP levels, higher ([1]; EVG/COBI/TAF/FTC): 5.3 fold; AUC of TFV-DP in PBMCs, higher than on TDF ([1]; TAF 8 mg versus TDF): 16.7%; AUC of TFV-DP in PBMCs, higher than on TDF ([1]; TAF 25 mg versus TDF): 613%; Intracellular TFV-DP levels, higher ([1]; darunavir/COBI/TAF/FTC): 652%
Nc1nc(=O)n([C@@H]2CS[C@H](CO)O2)cc1F [FTC, emtricitabine]	> 95.0	> 95.0	> 95.0	at least 18 months	1.04 ± 0.83 ng/mg hair and 1.04 ng/mg hair	0.846 ± 0.659 ng/mg hair and 0.846 ng/mg hair	0.705 ± 0.233	1.37 ± 1.16	0.428 ± 0.343	1.26 ± 0.59	0.851 ± 0.807	1.03 ± 0.70	0.898 ± 0.925	0.930 ± 0.601	22.9	13.83	Median urine FTC concentrations between regimens [2]: not different; FTC normalized average concentration, Average concentration [4, 15]: 0.988 ng/mg hair and 2.76 ng/mg hair and 1.05 ng/mg hair and 0.412 ng/mg hair and 1.86 ng/mg hair and 0.146 ng/mg hair and 0.840 ng/mg hair and 0.348 ng/mg hair and 0.694 ng/mg hair and 0.502 ng/mg hair; basic pKa [5]: 2.4
Nc1[15n][13c](=O)[15n]([C@@H]2CS[C@H](CO)O2)cc1F [FTC-^13C,^15N2, emtricitabine-^13C,^15N2]	> 95.0																
C[C@H](Cn1cnc2c(N)ncnc21)OCP(=O)(O)O [TFV, Tenofovir]	> 95.0	> 95.0	> 95.0	at least 18 months	0.0379 ± 0.0139 ng/mg hair and 0.0379 ng/mg hair	0.0553 ± 0.0318 ng/mg hair and 0.0553 ng/mg hair	0.0389 ± 0.0117	0.0370 ± 0.0185	0.0483 ± 0.0327	0.0844 ± 0.0357	0.0388 ± 0.0146	0.0584 ± 0.0336	0.0426 ± 0.0246	0.0525 ± 0.0295	−31.5	1.61	intracellular TFV concentration, increase ([1]; after switching from EVG/COBI/TDF/FTC to EVG/COBI/TAF/FTC): 141%; Median urine TFV concentrations, lower on TAF-based regimen than on TDF [2]: approximately 14 times; plasma AUC of TFV, boosted versus non-boosted, higher ([6]; TAF co-administrated with darunavir/COBI): approximately 5 times; plasma AUC of TFV, boosted versus non-boosted, higher ([6]; TDF co-administrated with darunavir/COBI): 1.95 times; median TFV hair concentration [7]: 0.038 ng/mg hair; TFV normalized average concentration, Average concentration [4, 15]: 0.0500 ng/mg hair and 0.0698 ng/mg hair and 0.0375 ng/mg hair and 0.0186 ng/mg hair and 0.0973 ng/mg hair and 0.0289 ng/mg hair and 0.0850 ng/mg hair and 0.0304 ng/mg hair and 0.0274 ng/mg hair and 0.0468 ng/mg hair; plasma Cmax, lower ([8]; 25 mg TAF compared with 300 mg TDF): 17 times; plasma exposure of TFV, lower ([8]; EVG/COBI/TAF/FTC compared to EVG/COBI/TDF/FTC): 91%; TFV concentrations in the plasma with TAF lower than with TDF ([8]; TAF versus TDF): 4 fold; TFV exposure in plasma, decrease ([8]; TAF-based compared with TDF-based treatment): approximately 90%; AUC of TFV, decrease [8, 18]: 90.9%; Cmax of TFV, decrease [8, 18]: 95.5%; AUC of TFV, decrease [8, 19]: 96.6%; Cmax of TFV, decrease [8, 19]: 98.3%; AUC of TFV, decrease [8, 20]: 86.0%; Cmax of TFV, decrease [8, 20]: 93.6%; AUC of TFV [8, 21]: 339 ng·h/mL; Cmax of TFV [8, 21]: 18.8 ng/mL; AUC of TFV [8, 22]: 3737 ng·h/mL; Cmax of TFV [8, 22]: 413 ng/mL
CC(Cn1cnc2c(N)ncnc21)OCP(=O)(O)O (stereo not shown) [TFV-d6, Tenofovir-d6]	> 95.0																
